Values quoted from earlier work as cited in US20230193011A1, “COLOR CHANGING POLYMERIC RESIN COMPOSITIONS” (ECOLAB USA INC., priority 2021, published 2023).
Like-named read-outs stand apart in the source and are kept apart here.

Settings: for High pH color: color above the transition range; for Low pH color: color below the transition range; for pH start: pH at which the color change begins; for pH end: pH at which the color change ends
[1] = listed as Malachite green - step 2

Compound	pKa	High pH color	Low pH color	pH start	pH end	further results
Cc1cc(O)c(C(C)C)cc1C1(c2cc(C(C)C)c(O)cc2C)OC(=O)c2ccccc21 [Thymolphthalein]	9.2	blue	colorless	9.0	10.5	
Methyl purple		green	purple	4.8	5.4	
Cc1cc2nc3ccc(N(C)C)cc3nc2cc1N.Cl [Neutral red]		yellow	red	6.8	8.0	
Cc1cc(C2(c3ccc(O)c(C)c3)OC(=O)c3ccccc32)ccc1O [Cresolphthalein]		purple	colorless	8.2	9.8	
O=C(O)c1cc(N=Nc2ccc([N+](=O)[O-])cc2)ccc1O [Alizarin yellow R]	11.2	red	yellow	10.1	12.0	
Azolitmin [Azolitmin (litmus)]		blue	red	4.5	8.3	
CN(C)c1ccc(N=Nc2ccccc2)cc1 [Methyl yellow]	3.3	yellow	red	2.9	4.0	
Cc1c(C2(c3cc(C(C)C)c(O)c(Br)c3C)OS(=O)(=O)c3ccccc32)cc(C(C)C)c(O)c1Br [Bromothymol blue]		blue	yellow	6.0	7.6	
O=S1(=O)OC(c2cc(Br)c(O)c(Br)c2)(c2cc(Br)c(O)c(Br)c2)c2ccccc21 [Bromophenol blue]		blue	yellow	3.0	4.6	
Cc1cc(C2(c3ccc(O)c(C)c3)OS(=O)(=O)c3ccccc32)ccc1O [Cresol red - step 1, Cresol red]		yellow	red	0.2	1.8	High pH color (listed as Cresol red - step 2): reddish-; Low pH color (listed as Cresol red - step 2): yellow; pH start (listed as Cresol red - step 2): 7.2; pH end (listed as Cresol red - step 2): 8.8
Cc1cc(O)c(C(C)C)cc1C1(c2cc(C(C)C)c(O)cc2C)OS(=O)(=O)c2ccccc21 [Thymol blue - step 1, Thymol blue]	1.7	yellow	red	1.2	2.8	High pH color (listed as Thymol blue - step 2): blue; Low pH color (listed as Thymol blue - step 2): yellow; pKa (listed as Thymol blue - step 2): 9.2; pH start (listed as Thymol blue - step 2): 8.0; pH end (listed as Thymol blue - step 2): 9.6
O=C1OC(c2ccc(O)c3ccccc23)(c2ccc(O)c3ccccc23)c2ccccc21 [Naphtholphthalein]		greenish-	pale red	7.3	8.7	
Cc1c(C2(c3cc(Br)c(O)c(Br)c3C)OS(=O)(=O)c3ccccc32)cc(Br)c(O)c1Br [Bromocresol green]	4.7	blue	yellow	3.8	5.4	
O=C1/C(=C2\Nc3ccc(S(=O)(=O)[O-])cc3C2=O)Nc2ccc(S(=O)(=O)[O-])cc21.[Na+].[Na+] [Indigo carmine]		yellow	blue	11.4	13.0	
Cc1cc(C2(c3cc(C)c(O)c(Br)c3)OS(=O)(=O)c3ccccc32)cc(Br)c1O [Bromocresol purple]	6.4	purple	yellow	5.2	6.8	
CN(C)c1ccc(/N=N/c2ccccc2C(=O)O)cc1 [Methyl red]	5.1	yellow	red	4.4	6.2	
Nc1c(/N=N/c2ccc(-c3ccc(/N=N/c4cc(S(=O)(=O)O)c5ccccc5c4N)cc3)cc2)cc(S(=O)(=O)O)c2ccccc12 [Congo red]		red	blue-violet	3.0	5.0	
CN(C)c1ccc(C(=C2C=CC(=[N+](C)C)C=C2)c2ccccc2)cc1 [Malachite green - step 1, Malachite green]		green	yellow	0.2	1.8	High pH color [1]: colorless; Low pH color [1]: green; pH start [1]: 11.5; pH end [1]: 13.2
CN(C)c1ccc(N=Nc2ccc(S(=O)(=O)[O-])cc2)cc1.[Na+] [Methyl orange]	3.5	yellow	red	3.1	4.4	
O=C1OC(c2ccc(O)cc2)(c2ccc(O)cc2)c2ccccc21 [Phenolphthalein]	9.5	red-pink	colorless	8.3	10.0	
